# Experiments:
# [1] = tested on: blackgrass; assay: Test C preemergence; format: in vivo, Alopecurus myosuroides
# Method in brief: (§1)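 Visual injury score, 0–100 (100 = complete control), taken 10 days after treatment relative to untreated controls. Pre: directed spray onto soil over sown seeds. Post: foliar spray at one- to two-leaf stage, 2–10 cm. Solvent/surfactant formulation; loam–sand soil; greenhouse.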
# [2] = tested on: soybean; assay: Test C postemergence; format: in vivo, Glycine max; conditions: Postemergence, 125 g ai/ha; 0 to 100 scale (0 no effect, 100 complete control), 10 days
# Method in brief: as §1
# [3] = tested on: ryegrass, Italian; assay: Test C preemergence; format: in vivo, Lolium multiflorum
# Method in brief: as §1
# [4] = tested on: ryegrass, Italian; assay: Test C postemergence; format: in vivo, Lolium multiflorum; conditions: Postemergence, 125 g ai/ha; 0 to 100 scale (0 no effect, 100 complete control), 10 days
# Method in brief: as §1
# [5] = tested on: ragweed; assay: Test C postemergence; format: in vivo, Ambrosia artemisiifolia; conditions: Postemergence, 125 g ai/ha; 0 to 100 scale (0 no effect, 100 complete control), 10 days
# Method in brief: as §1
# [6] = tested on: sedge, umbrella; assay: Test D flooded paddy test; format: in vivo, Cyperus difformis; conditions: 250 g ai/ha, applied to paddy water, visual rating after 13 to 14 days, scale 0 to 100 (0 no effect, 100 complete control)
# Method in brief: (§2)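 Plants at the 2-leaf stage were grown in pots flooded to 3 cm, and compound was applied directly into the paddy water, with depth kept throughout. After 13–14 days in a greenhouse, injury was rated visually against untreated controls on a 0–100 scale (100 = complete control); a dash means not tested.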
# [7] = tested on: ducksalad; assay: Test D flooded paddy test; format: in vivo, Heteranthera limosa; conditions: 250 g ai/ha, applied to paddy water, visual rating after 13 to 14 days, scale 0 to 100 (0 no effect, 100 complete control)
# Method in brief: as §2
# [8] = tested on: corn; assay: Test C postemergence; format: in vivo, Zea mays; conditions: 10 days, 0 to 100 scale (0 no effect, 100 complete control)
# Method in brief: as §1
# [9] = tested on: barnyardgrass; assay: Test C postemergence; format: in vivo, Echinochloa crusgalli; conditions: 10 days, 0 to 100 scale (0 no effect, 100 complete control)
# Method in brief: as §1
# [10] = tested on: blackgrass; assay: Test C postemergence; format: in vivo, Alopecurus myosuroides; conditions: 10 days, 0 to 100 scale (0 no effect, 100 complete control)
# Method in brief: as §1
# [11] = tested on: green foxtail; assay: Test C postemergence; format: in vivo, Setaria viridis; conditions: 10 days, 0 to 100 scale (0 no effect, 100 complete control)
# Method in brief: as §1
# [12] = tested on: corn; assay: Test C preemergence; format: in vivo, Zea mays
# Method in brief: as §1
# [13] = tested on: wheat; assay: Test C postemergence; format: in vivo, Triticum aestivum; conditions: Postemergence, 125 g ai/ha; 0 to 100 scale (0 no effect, 100 complete control), 10 days
# Method in brief: as §1
# [14] = tested on: kochia; assay: Test C postemergence; format: in vivo, Bassia scoparia; conditions: 10 days, 0 to 100 scale (0 no effect, 100 complete control)
# Method in brief: as §1
# [15] = tested on: oat, wild; assay: Test C postemergence; format: in vivo, Avena fatua; conditions: 10 days, 0 to 100 scale (0 no effect, 100 complete control)
# Method in brief: as §1
# [16] = tested on: soybean; assay: Test C preemergence; format: in vivo, Glycine max
# Method in brief: as §1
# [17] = tested on: ragweed; assay: Test C preemergence; format: in vivo, Ambrosia artemisiifolia
# Method in brief: as §1
# [18] = tested on: wheat; assay: Test C preemergence; format: in vivo, Triticum aestivum
# Method in brief: as §1
# [19] = tested on: oat, wild; assay: Test C preemergence; format: in vivo, Avena fatua
# Method in brief: as §1
# [20] = tested on: green foxtail; assay: Test C preemergence; format: in vivo, Setaria viridis
# Method in brief: as §1
# [21] = tested on: barnyardgrass; assay: Test C preemergence; format: in vivo, Echinochloa crusgalli
# Method in brief: as §1
# [22] = tested on: kochia; assay: Test C preemergence; format: in vivo, Bassia scoparia
# Method in brief: as §1
# [23] = tested on: horseweed; assay: Test C postemergence; format: in vivo, Erigeron canadensis; conditions: 10 days, 0 to 100 scale (0 no effect, 100 complete control)
# Method in brief: as §1
# [24] = tested on: rice; assay: Test D flooded paddy test; format: in vivo, Oryza sativa; conditions: 250 g ai/ha, applied to paddy water, visual rating after 13 to 14 days, scale 0 to 100 (0 no effect, 100 complete control)
# Method in brief: as §2
# [25] = tested on: pigweed, palmer; assay: Test C preemergence; format: in vivo, Amaranthus palmeri
# Method in brief: as §1
# [26] = tested on: pigweed, palmer; assay: Test C postemergence; format: in vivo, Amaranthus palmeri; conditions: 10 days, 0 to 100 scale (0 no effect, 100 complete control)
# Method in brief: as §1
# [27] = tested on: barnyardgrass; assay: Test D flooded paddy test; format: in vivo, Echinochloa crus-galli; conditions: 250 g ai/ha, applied to paddy water, visual rating after 13 to 14 days, scale 0 to 100 (0 no effect, 100 complete control)
# Method in brief: as §2
# [28] = 500 g ai/ha, preemergence, 0 to 100 scale (0 no effect, 100 complete control)
# [29] = Preemergence, 125 g ai/ha, 0 to 100 scale, 0 no effect, 100 complete control
compound,measurement,setting,value
CCOC[C@H]1CN(C(=O)c2cc(-n3cnc(C4CCC4)n3)cc3c2OCO3)c2cccc(Cl)c2O1 [Compound 399],Blackgrass plant response rating,[1]; [28],0
same,"Plant response rating, Blackgrass",[1]; [29],0
same,"Plant response rating, Soybean",[2],0
same,"Ryegrass, Italian plant response rating",[3]; [28],70
same,"Plant response rating, Ryegrass, Italian",[3]; [29],50
same,"Plant response rating, Ryegrass, Italian",[4],0
same,"Plant response rating, Ragweed",[5],70
same,"Plant response rating, Sedge, Umbrella (Flood)",[6],0
same,"Plant response rating, Ducksalad (Flood)",[7],0
same,"Plant response rating, Corn","[8]; 500 g ai/ha, postemergence",10
same,"Plant response rating, Corn","[8]; Postemergence, 125 g ai/ha",0
same,"Plant response rating, Barnyardgrass","[9]; 500 g ai/ha, postemergence",30
same,"Plant response rating, Barnyardgrass","[9]; Postemergence, 125 g ai/ha",20
same,"Plant response rating, Blackgrass","[10]; 500 g ai/ha, postemergence",20
same,"Plant response rating, Blackgrass","[10]; Postemergence, 125 g ai/ha",0
same,"Plant response rating, Foxtail, Green","[11]; 500 g ai/ha, postemergence",40
same,"Plant response rating, Foxtail, Green","[11]; Postemergence, 125 g ai/ha",10
same,Corn plant response rating,[12]; [28],0
same,"Plant response rating, Corn",[12]; [29],0
same,"Plant response rating, Wheat",[13],20
same,"Plant response rating, Kochia","[14]; 500 g ai/ha, postemergence",90
same,"Plant response rating, Kochia","[14]; Postemergence, 125 g ai/ha",90
same,"Plant response rating, Oat, Wild","[15]; 500 g ai/ha, postemergence",0
same,"Plant response rating, Oat, Wild","[15]; Postemergence, 125 g ai/ha",0
same,Soybean plant response rating,[16]; [28],20
same,"Plant response rating, Soybean",[16]; [29],0
same,Ragweed plant response rating,[17]; [28],80
same,"Plant response rating, Ragweed",[17]; [29],30
same,Wheat plant response rating,[18]; [28],10
same,"Plant response rating, Wheat",[18]; [29],0
same,"Oat, Wild plant response rating",[19]; [28],30
same,"Plant response rating, Oat, Wild",[19]; [29],0
same,"Foxtail, Green plant response rating",[20]; [28],100
same,"Plant response rating, Foxtail, Green",[20]; [29],20
same,Barnyardgrass plant response rating,[21]; [28],70
same,"Plant response rating, Barnyardgrass",[21]; [29],10
same,Kochia plant response rating,[22]; [28],70
same,"Plant response rating, Kochia",[22]; [29],0
same,"Plant response rating, Horseweed","[23]; 500 g ai/ha, postemergence",70
same,"Plant response rating, Horseweed","[23]; Postemergence, 125 g ai/ha",50
same,"Plant response rating, Rice (Flood)",[24],0
same,"Pigweed, Palmer plant response rating",[25]; [28],100
same,"Plant response rating, Pigweed, Palmer",[25]; [29],100
same,"Plant response rating, Pigweed, Palmer","[26]; 500 g ai/ha, postemergence",100
same,"Plant response rating, Pigweed, Palmer","[26]; Postemergence, 125 g ai/ha",100
same,"Plant response rating, Barnyardgrass (Flood)",[27],0

# Reference: patent US20260262643A1, “HERBICIDAL BENZOXAZINES” (FMC CORPORATION, priority 2022, published 2026)
